From PMC11258189, “Estrogenic, androgenic, and genotoxic activities of zearalenone and deoxynivalenol in in vitro bioassays including exogenous metabolic activation” (Mycotoxin Research, 2024)
Where two headings read alike, the source gives them in different places.

Experiments:
[1] = system: TK6 cells
[2] = system: estrogen receptor (ER); format: cell-based, human
[3] = design: method as in Drzymala et al. [2014]; details: rat liver microsomes, presence of NADPH, after 60 min; ref Drzymala et al. [2014]; cited from earlier work
[4] = system: AR; design: method as in Molina-Molina et al. [2014]; details: ref Molina-Molina et al. [2014], cited from earlier work
[5] = biological target: T1, human androgen receptor (Homo sapiens, UniProt P10275); format: cell-based
T1 construct: host or cells: Chinese hamster ovary (CHO) cells, AR-EcoScreen GR KO M1, stably transfected, glucocorticoid receptor knocked out
T1 sequence (P10275 1-920): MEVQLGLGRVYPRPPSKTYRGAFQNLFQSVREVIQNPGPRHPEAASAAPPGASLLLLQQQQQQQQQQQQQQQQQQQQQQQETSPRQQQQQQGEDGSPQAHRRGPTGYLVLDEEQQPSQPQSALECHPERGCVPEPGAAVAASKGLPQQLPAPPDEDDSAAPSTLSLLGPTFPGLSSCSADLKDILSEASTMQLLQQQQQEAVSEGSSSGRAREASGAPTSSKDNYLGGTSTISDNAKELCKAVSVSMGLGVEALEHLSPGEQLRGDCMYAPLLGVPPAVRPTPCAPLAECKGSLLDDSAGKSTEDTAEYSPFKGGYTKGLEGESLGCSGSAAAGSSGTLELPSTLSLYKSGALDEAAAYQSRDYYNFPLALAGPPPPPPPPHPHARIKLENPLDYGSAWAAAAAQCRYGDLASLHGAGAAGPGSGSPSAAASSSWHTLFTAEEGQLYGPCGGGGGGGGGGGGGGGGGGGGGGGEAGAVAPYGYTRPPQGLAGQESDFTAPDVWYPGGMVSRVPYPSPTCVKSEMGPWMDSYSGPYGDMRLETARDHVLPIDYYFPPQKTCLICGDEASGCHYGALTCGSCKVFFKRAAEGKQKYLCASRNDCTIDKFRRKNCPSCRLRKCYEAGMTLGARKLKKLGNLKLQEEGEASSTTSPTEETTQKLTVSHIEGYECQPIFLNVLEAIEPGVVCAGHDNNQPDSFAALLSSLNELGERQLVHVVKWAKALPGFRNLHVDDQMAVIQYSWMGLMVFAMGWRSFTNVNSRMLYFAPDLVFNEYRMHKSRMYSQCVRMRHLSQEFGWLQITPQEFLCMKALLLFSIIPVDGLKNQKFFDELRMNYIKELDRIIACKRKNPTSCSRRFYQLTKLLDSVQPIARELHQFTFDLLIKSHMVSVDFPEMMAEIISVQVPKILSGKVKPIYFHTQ

[6] = system: estrogen receptor (ER)
[7] = biological target: T1, human androgen receptor; format: cell-based; remark: listed apart in the source
[8] = ZEN compounds, S9 + PHI cofactors, [95% CI]
[9] = ZEN compounds, S9 alone, [95% CI]
[10] = ZEN compounds, no MAS, [95% CI]
[11] = without exogenous MAS, initial concentration-range finding trials, 24 h
[12] = ZEN compounds, S9 + PHI + PHII cofactors, [95% CI]
[13] = DON compounds, S9 + PHI + PHII cofactors, [95% CI]
[14] = DON compounds, S9 + PHII cofactors, [95% CI]
[15] = DON compounds, S9 alone, [95% CI]
[16] = DON compounds, no MAS, [95% CI]
[17] = DON compounds, S9 + PHI + PHII cofactors
[18] = DON compounds, S9 + PHII cofactors

## C[C@H]1CCCC(=O)CCC/C=C/c2cc(O)cc(O)c2C(=O)O1 [ZEN, zearalenone]
[1]; 5 h exposure, alone, with S9 alone or S9 with cofactors, ZEN 6.25 and 12.50 µM, DON 0.78 and 1.56 µM
  Micronuclei formation (% MN) versus vehicle controls: neither ZEN nor DON alone or with the S9 alone or with cofactors had any statistically significant effect on % MN
[1]; 24 h continuous exposure, without MAS, non-cytotoxic test concentrations
  Micronuclei formation (% MN) versus vehicle control: statistically significant increase in % MN
[1]; 24 h continuous exposure, without MAS, p-value of 0.0007
  Test concentration with statistically significant increase in % MN (highest non-cytotoxic test concentration): 12.5 µM
[2]; [8]
  ER antagonism IC30: 10.3 [8.71,11.8] µM
[2]; [9]
  ER antagonism IC30: 3.41 [2.40,4.68] µM
[2]; [10]
  ER antagonism IC30: 2.92 [2.09,3.89] µM
[2]; [11]
  ER antagonism IC30: 2.85 µM
[3]
  Decrease of substrate concentration to (% remaining): approximately 40%
[4]; PALM cells, 40 h of exposure, concentrations up to 10 µM
  Androgenic activities: no androgenic activities were detected
[4]; androgen-sensitive PALM cells
  AR antagonistic effect IC50: micromolar range
[5]; ZEN compounds, S9 + PHI + PHII cofactors
  AR agonism EC10: <LOD
[5]; ZEN compounds, S9 + PHI cofactors
  AR agonism EC10: <LOD
[5]; ZEN compounds, S9 alone
  AR agonism EC10: <LOD
[5]; ZEN compounds, no MAS
  AR agonism EC10: <LOD
[5]; [11]
  AR agonism EC10: <LOD
[6]; [12]
  ER agonism EC10: 6470 pM
[6]; [8]
  ER agonism EC10: 984 [740,1 279] pM
[6]; [9]
  ER agonism EC10: 63.3 [56.2,97.2] pM
[6]; ZEN compounds, no MAS (S9 −, PHI −, PHII −), [95% CI]
  ER agonism EC10: 46.5 [29.5,72.4] pM
[6]; converted from 30–40 pM
  ER agonism EC10 value range converted to a concentration range in a water sample: 0.01 to 0.012 ng/mL
[6]; water sample enriched 50 times
  ER agonism EC10 converted to concentration in a water sample enriched 50 times: approximately 0.2 ng/L
[6]; [11]
  ER agonism EC10: 30 to 40 pM
[6]; without exogenous MAS, initial concentration-range finding trials, 24 h, listed as Zearalenone (ZEN)
  ER agonism EC10: 34.07 pM
[7]; [12]
  AR antagonism IC30: 18.0 [13.8,23.4] µM
[7]; [8]
  AR antagonism IC30: 7.33 [6.31,8.13] µM
[7]; [9]
  AR antagonism IC30: 2.14 [1.82,2.45] µM
[7]; [10]
  AR antagonism IC30: 2.37 [1.95,2.75] µM
[7]; [11]
  AR antagonism IC30: 3.30 µM

## CC(=O)O[C@@H]1C[C@]2(C)[C@@]3(CO)[C@H](O)C(=O)C(C)=C[C@H]3O[C@H]1[C@@]21CO1 [3-Ac-DON, 3-acetyl deoxynivalenol]
[2]; [13]
  ER antagonism IC30: <LOD
[2]; [14]
  ER antagonism IC30: <LOD
[2]; [15]
  ER antagonism IC30: <LOD
[2]; [16]
  ER antagonism IC30: <LOD
[2]; [11]
  ER antagonism IC30: <LOD
[5]; [13]
  AR agonism EC10: 0.91 [0.65,1.35] µM
[5]; [14]
  AR agonism EC10: 0.63 [0.52,0.78] µM
[5]; [15]
  AR agonism EC10: 1.07 [0.91,1.23] µM
[5]; [16]
  AR agonism EC10: 1.11 [0.95,1.26] µM
[5]; [11]
  AR agonism EC10: 1.31 µM
[6]
  Estrogenicity relative to α-ZEL (times lower): ~10^5 times
[6]; [17]
  ER agonism EC10: <LOD
[6]; [18]
  ER agonism EC10: <LOD
[6]; [15]
  ER agonism EC10: 0.53 [0.49,0.59] µM
[6]; [16]
  ER agonism EC10: 0.45 [0.41,0.49] µM
[6]; without MAS
  ER agonism, response as % of the maximum response of E2 in the assay: 30%
[6]; without MAS, abstract
  ER bioassay EC10 (estrogenic): 310 nM
[6]; [11]
  ER agonism EC10: 310,000 pM
[7]; [17]
  AR antagonism IC30: <LOD
[7]; [18]
  AR antagonism IC30: <LOD
[7]; DON compounds, S9 alone
  AR antagonism IC30: <LOD
[7]; DON compounds, no MAS
  AR antagonism IC30: <LOD
[7]; [11]
  AR antagonism IC30: <LOD

## C[C@]12CC[C@@H]3c4ccc(O)cc4CC[C@H]3[C@@H]1CC[C@@H]2O [E2, 17β-estradiol, reference compound]
[6]
  ER agonistic activity after treatment of cells with only S9: reduction of ER agonistic activity
